Experimental data published in patent US11707530B2, “Ligand capable of multivalently binding to glutamine transporter, and composition comprising same” (TOKYO INSTITUTE OF TECHNOLOGY, priority 2016, dated 2023).

Key:
[1] = target: T1, ASCT2 (Homo sapiens, UniProt Q15758); assay: Antibody labeling of Bx-PC3 cells after incubation in Bzl-Ser solution; assay type: cell-based; set-up: endogenous in cells; host or cells: Bx-PC3 (BxPC-3) pancreatic cancer cells; conditions: 50 mM Bzl-Ser
T1 sequence (Q15758 1-541): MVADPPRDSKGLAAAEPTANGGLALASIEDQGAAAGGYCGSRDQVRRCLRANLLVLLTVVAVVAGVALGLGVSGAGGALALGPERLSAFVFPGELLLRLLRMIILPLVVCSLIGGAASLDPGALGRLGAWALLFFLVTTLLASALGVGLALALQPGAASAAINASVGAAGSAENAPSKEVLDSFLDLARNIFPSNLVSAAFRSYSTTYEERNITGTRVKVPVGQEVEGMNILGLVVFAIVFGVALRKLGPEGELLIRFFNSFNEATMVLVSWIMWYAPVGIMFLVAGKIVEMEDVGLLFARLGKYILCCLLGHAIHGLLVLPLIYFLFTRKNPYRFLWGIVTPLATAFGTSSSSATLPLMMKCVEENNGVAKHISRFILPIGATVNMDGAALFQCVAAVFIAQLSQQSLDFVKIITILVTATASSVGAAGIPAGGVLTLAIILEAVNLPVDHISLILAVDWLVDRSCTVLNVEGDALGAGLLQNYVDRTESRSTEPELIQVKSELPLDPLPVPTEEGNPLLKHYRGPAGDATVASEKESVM

[2] = target: T1, ASCT2; conditions: background statement; read-out: Km (Michaelis constant, affinity for ASCT2); cited from earlier work

Row | antibody labeling, cells incubated in Bzl-Ser solution vs PBS+10% FBS [1] | SMILES | Km [2] [µM]
1 | no difference observed | N[C@@H](COCc1ccccc1)C(=O)O [Bzl-Ser, O-benzyl-L-serine] | –
2 | – | NC(=O)CC[C@H](N)C(=O)O [glutamine, L-glutamine] | 20
